Test results published in paper PMC3905752 (Nature chemical biology, 2013).

Legend:
Type in all cases: biochemical
Cdc34A^Glu133Arg [1] = target: T1, Cdc34A^Glu133Arg (Homo sapiens, UniProt P49427, E133R); assay: Sic1-SCF^Cdc4 ubiquitination assay with Cdc34A^Glu133Arg mutant; conditions: Cdc34A^Glu133Arg mutant, wild type ubiquitin
T1 sequence (P49427 1-236 E133R): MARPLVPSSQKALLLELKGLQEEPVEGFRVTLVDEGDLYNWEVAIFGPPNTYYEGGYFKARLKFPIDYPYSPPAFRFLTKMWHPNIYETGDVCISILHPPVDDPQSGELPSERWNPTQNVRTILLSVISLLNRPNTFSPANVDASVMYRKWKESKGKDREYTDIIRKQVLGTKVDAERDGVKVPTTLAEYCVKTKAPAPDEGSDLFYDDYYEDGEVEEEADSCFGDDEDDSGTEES

Cdc34A^Glu133Arg [2] = target: Cdc34A^Glu133Arg (Homo sapiens, UniProt P49427, E133R); assay: as above; conditions: Cdc34A^Glu133Arg mutant with Ub^Arg42Glu mutant
[3] = target: ubiquitin~Cdc34A thioester (Homo sapiens, UniProt P0CG48+P49427, K48R); assay: Spontaneous hydrolysis of the ubiquitin~Cdc34A^FL thioester; conditions: 100 μM CC0651

- Sensitivity of Sic1 ubiquitination to CC0651 (Cdc34A^Glu133Arg [1]): insensitivity
- Sensitivity of Sic1 ubiquitination to CC0651 (Cdc34A^Glu133Arg [2]): restored
- Effect on hydrolysis of the ubiquitin~Cdc34A thioester to water [3]: inhibited
SMILES: COCC(=O)N[C@@H](Cc1ccc(-c2cc(Cl)cc(Cl)c2)cc1)[C@H](O)[C@@H](O)C(=O)O [CC0651, (2R,3S,4S)-5-(3′,5′-Dichloro-[1,1′-biphenyl]-4-yl)-2,3-dihydroxy-4-(2 methoxyacetamido)pentanoic acid]
